The values below come from patent US7592336B2, “Hepatitis C virus inhibitors” (Bristol-Myers Squibb Company, priority 2005, dated 2009).

The target of this experiment is T1, HCV NS3/4A protease complex, H77 strain (Hepatitis C virus genotype 1a, UniProt P27958, C1454S/C1711G).
T1 construct: DNA encoding the recombinant HCV NS3/4A protease complex (amino acids 1027 to 1711) for these strains; inferred from pET21b vector and Ni-NTA purification; made in house; host or cells: Escherichia coli BL21 (DE3), pET21b
T1 sequence (P27958 1027-1711 C1454S/C1711G, one chain of several): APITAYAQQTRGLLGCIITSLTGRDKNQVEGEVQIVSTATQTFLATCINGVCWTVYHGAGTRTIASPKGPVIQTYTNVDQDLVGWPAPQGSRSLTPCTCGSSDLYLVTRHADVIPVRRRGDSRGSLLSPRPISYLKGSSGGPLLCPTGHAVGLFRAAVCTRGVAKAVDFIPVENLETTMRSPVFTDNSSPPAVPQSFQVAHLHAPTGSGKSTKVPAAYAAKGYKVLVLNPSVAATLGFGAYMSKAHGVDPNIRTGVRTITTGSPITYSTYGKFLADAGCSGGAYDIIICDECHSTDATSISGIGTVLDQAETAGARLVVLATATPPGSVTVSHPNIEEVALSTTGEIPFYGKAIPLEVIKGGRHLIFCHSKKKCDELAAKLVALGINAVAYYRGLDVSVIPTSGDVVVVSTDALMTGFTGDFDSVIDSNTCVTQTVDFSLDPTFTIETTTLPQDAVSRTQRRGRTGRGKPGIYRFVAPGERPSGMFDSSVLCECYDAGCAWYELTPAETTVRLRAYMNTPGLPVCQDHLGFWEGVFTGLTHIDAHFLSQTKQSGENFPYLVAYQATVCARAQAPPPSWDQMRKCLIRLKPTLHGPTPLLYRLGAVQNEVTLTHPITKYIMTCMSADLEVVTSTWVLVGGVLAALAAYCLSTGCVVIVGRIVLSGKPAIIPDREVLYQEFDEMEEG
Description: FRET peptide assay to monitor HCV NS3/4A proteolytic activity (H77 strain). Conditions: read-out: IC50 against NS3/4A H77 strain. Format: biochemical, HCV genotype 1a. An excerpt:
HCV NS3 protease complexes, derived from the BMS strain, H77 strain or J4L6S strain, were generated, as described below. These purified recombinant proteins were generated for use in a homogeneous assay (see below) to provide an indication of how effective compounds of the present disclosure would be in inhibiting HCV NS3 proteolytic activity.
The H77 and J4L6S strains were used for production of recombinant NS3/4A protease complexes. DNA encoding the recombinant HCV NS3/4A protease complex (amino acids 1027 to 1711) for these strains were manipulated as described by P. Gallinari et al. (see Gallinari P, Paolini C, Brennan D, Nardi C, Steinkuhler C, De Francesco R. Biochemistry. 38(17):5620-32, (1999)). Briefly, a three-lysine solubilizing tail was added at the 3′-end of the NS4A coding region. The cysteine in the P1 position of the NS4A-NS4B cleavage site (amino acid 1711) was changed to a glycine to avoid the proteolytic cleavage of the lysine tag. Furthermore, a cysteine to serine mutation was introduced by PCR at amino acid position 1454 to prevent the autolytic cleavage in the NS3 helicase domain. […]

Each structure is given as a SMILES string.

Regarding `C=C[C@@H]1C[C@]1(NC(=O)[C@@H]1C[C@@](O)(c2ccc(-c3ccccc3)cc2)CN1C(=O)[C@@H](NC(=O)OC(C)(C)C)C(C)(C)C)C(=O)NS(=O)(=O)C1CC1` [Compound 3], the IC50 came out at 1.6 nM.
